Laboratory results reported in patent publication US11254668B2, “Pyrazolo[1,5-A]pyrazin-4-yl and related derivatives” (Pfizer Inc., priority 2017, dated 2022).
Read-outs that look alike come from different tables or passages of the source.

Legend:
Assay type in all cases: biochemical
TYK2 = TYK2 (Homo sapiens (Human), UniProt P29597); experiment: JAK Caliper Enzyme Assay at 1 mM ATP, TYK2
Method in brief: (§1)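 Inhibition is measured as reduced phosphorylation of a synthetic peptide by the recombinant human kinase domain at 1 mM ATP. Conditions give 20–30% conversion at room temperature before EDTA quench, and on-chip separation of labelled substrate and product yields percent conversion for dose–response plotting.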

JAK2 = JAK2 (Homo sapiens (Human), UniProt O60674); experiment: JAK Caliper Enzyme Assay at 1 mM ATP, JAK2
JAK2, sequence (O60674 849-1124): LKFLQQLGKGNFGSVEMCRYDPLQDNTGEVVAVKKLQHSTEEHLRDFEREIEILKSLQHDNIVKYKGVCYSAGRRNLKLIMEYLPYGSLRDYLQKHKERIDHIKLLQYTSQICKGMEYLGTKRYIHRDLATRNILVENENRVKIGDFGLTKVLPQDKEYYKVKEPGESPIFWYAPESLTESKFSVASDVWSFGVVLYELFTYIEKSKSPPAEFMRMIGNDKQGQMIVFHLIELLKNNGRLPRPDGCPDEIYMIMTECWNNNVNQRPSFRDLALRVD
Method in brief: as §1

JAK1 = JAK1 (Homo sapiens (Human), UniProt P23458); experiment: JAK Caliper Enzyme Assay at 1 mM ATP, JAK1
JAK1, sequence (P23458 875-1153): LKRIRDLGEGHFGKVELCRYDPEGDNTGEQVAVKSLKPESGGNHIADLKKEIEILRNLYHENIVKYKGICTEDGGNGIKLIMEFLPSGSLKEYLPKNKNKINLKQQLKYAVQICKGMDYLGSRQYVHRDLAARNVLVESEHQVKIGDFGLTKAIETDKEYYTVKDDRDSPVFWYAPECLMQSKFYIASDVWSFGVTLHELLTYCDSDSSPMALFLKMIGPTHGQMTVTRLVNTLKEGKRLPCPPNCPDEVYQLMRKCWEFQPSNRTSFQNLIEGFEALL
Method in brief: (§2)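 Recombinant human kinase domains phosphorylate a fluorescent synthetic peptide at 1 mM ATP, room temperature, with enzyme and time tuned for 20-30% conversion; EDTA-stopped. Product/substrate separated by microfluidic mobility shift; percent effect versus DMSO and positive controls fitted to IC50 (nM).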

JAK3 = JAK3 (Homo sapiens (Human), UniProt P52333); experiment: JAK Caliper Enzyme Assay at 1 mM ATP, JAK3
JAK3, sequence (P52333 822-1111): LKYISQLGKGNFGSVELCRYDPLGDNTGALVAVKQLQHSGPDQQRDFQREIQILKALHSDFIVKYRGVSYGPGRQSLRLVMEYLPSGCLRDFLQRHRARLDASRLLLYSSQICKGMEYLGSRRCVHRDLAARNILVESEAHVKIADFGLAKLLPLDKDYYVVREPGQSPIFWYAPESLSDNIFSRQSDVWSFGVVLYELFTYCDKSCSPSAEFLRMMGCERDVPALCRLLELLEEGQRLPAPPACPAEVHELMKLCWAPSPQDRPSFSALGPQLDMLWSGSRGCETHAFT
Method in brief: as §2

TYK2, sequence (P29597 897-1176): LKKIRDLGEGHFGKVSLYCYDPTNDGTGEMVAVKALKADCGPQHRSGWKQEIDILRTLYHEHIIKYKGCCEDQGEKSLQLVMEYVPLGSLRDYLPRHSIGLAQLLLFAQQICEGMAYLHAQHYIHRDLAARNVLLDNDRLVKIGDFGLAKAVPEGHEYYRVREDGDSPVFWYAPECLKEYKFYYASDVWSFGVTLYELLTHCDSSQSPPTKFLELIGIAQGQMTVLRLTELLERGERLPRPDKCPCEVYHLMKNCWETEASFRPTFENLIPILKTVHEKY

Row | Structure (SMILES) | IC50 (TYK2) [nM] | IC50 (JAK2) [nM] | IC50 (JAK1) [nM] | IC50 (JAK3) [nM] | IC50 (TYK2; JAK Caliper enzyme assay) [nM] | IC50 (JAK2; JAK Caliper enzyme assay) [nM] | IC50 (JAK1; JAK Caliper enzyme assay) [nM] | IC50 (JAK3; JAK Caliper enzyme assay) [nM]
1 | CS(=O)(=O)N1CC(CC#N)(n2ncc(-c3cc(-c4ccc(N)nc4)cc4ncccc34)n2)C1 [Example 364, [3-{4-[7-(6-aminopyridin-3-yl)quinolin-5-yl]-2H-1,2,3-triazol-2-yl}-1-(methylsulfonyl)azetidin-3-yl]acetonitrile] | 67 | 834 | 2960 | > 10000 |  |  |  | 
2 | N#CC[C@]1(n2ncc(-c3cc(-c4ccc(N)nc4)cc4ncccc34)n2)C[C@H](C#N)C1 [Example 365, trans-3-{4-[7-(6-aminopyridin-3-yl)quinolin-5-yl]-2H-1,2,3-triazol-2-yl}-3-(cyanomethyl)cyclobutanecarbonitrile] | 103 | 938 | 2660 | > 10000 |  |  |  | 
3 | N#CC[C@]1(n2ncc(-c3cc(-c4ccc(N)nc4)cc4ncccc34)n2)C[C@@H](C#N)C1 [Example 366, cis-3-{4-[7-(6-aminopyridin-3-yl)quinolin-5-yl]-2H-1,2,3-triazol-2-yl}-3-(cyanomethyl)cyclobutanecarbonitrile] | 26 | 167 | 520 | 8160 |  |  |  | 
4 | N#CC[C@]1(n2ncc(-c3cc(-c4ccnc(N)c4)cc4ncccc34)n2)C[C@H](C#N)C1 [Example 367, trans-3-{4-[7-(2-aminopyridin-4-yl)quinolin-5-yl]-2H-1,2,3-triazol-2-yl}-3-(cyanomethyl)cyclobutanecarbonitrile] | 93 | 1290 | 2800 | > 10000 |  |  |  | 
5 | CS(=O)(=O)c1ccc(-c2cc(-c3cnn([C@]4(CC#N)C[C@H](C#N)C4)n3)c3cccnc3c2)nc1 [Example 368, cis-3-(cyanomethyl)-3-(4-{7-[5-(methylsulfonyl)pyridin-2-yl]quinolin-5-yl}-2H-1,2,3-triazol-2-yl)cyclobutanecarbonitrile] | 15 | 42 | 525 | 7250 |  |  |  | 
6 | CS(=O)(=O)c1ccc(-c2cc(-c3cnn([C@]4(CC#N)C[C@@H](C#N)C4)n3)c3cccnc3c2)nc1 [Example 369, trans-3-(cyanomethyl)-3-(4-{7-[5-(methylsulfonyl)pyridin-2-yl]quinolin-5-yl}-2H-1,2,3-triazol-2-yl)cyclobutanecarbonitrile] | 55 | 281 | 3510 | > 10000 |  |  |  | 
7 | N#CC[C@]1(n2ncc(-c3cc(-c4cccc(C(=O)O)n4)cc4ncccc34)n2)C[C@H](C#N)C1 [Example 370, 6-(5-{2-[cis-3-cyano-1-(cyanomethyl)cyclobutyl]-2H-1,2,3-triazol-4-yl}quinolin-7-yl)pyridine-2-carboxylic acid] | 30 | 345 | 2290 | > 10000 |  |  |  | 
8 | N#CC[C@]1(n2ncc(-c3cc(-c4cccc(C(=O)O)n4)cc4ncccc34)n2)C[C@@H](C#N)C1 [Example 371, 6-(5-{2-[trans-3-cyano-1-(cyanomethyl)cyclobutyl]-2H-1,2,3-triazol-4-yl}quinolin-7-yl)pyridine-2-carboxylic acid] | 110 | 1610 | 9280 | > 10000 |  |  |  | 
9 | CS(=O)(=O)Nc1cccc(-c2cc(-c3cnn(C4(CC#N)CC(C#N)C4)n3)c3cccnc3c2)n1 (stereo not drawn) [Example 372, N-[6-(5-{2-[cis-3-cyano-1-(cyanomethyl)cyclobutyl]-2H-1,2,3-triazol-4-yl}quinolin-7-yl)pyridin-2-yl]methanesulfonamide] |  |  |  |  | 21 | 80 | 600 | 5970
10 | CS(=O)(=O)Nc1cccc(-c2cc(-c3cnn(C4(CC#N)CC(C#N)C4)n3)c3cccnc3c2)n1 (stereo not drawn) [Example 373, N-[6-(5-{2-[trans-3-cyano-1-(cyanomethyl)cyclobutyl]-2H-1,2,3-triazol-4-yl}quinolin-7-yl)pyridin-2-yl]methanesulfonamide] |  |  |  |  | 69 | 411 | 4070 | > 10000
11 | CS(=O)(=O)Nc1ccc(-c2cc(-c3cnn(C4(CC#N)CC(C#N)C4)n3)c3cccnc3c2)nc1 (stereo not drawn) [Example 374, N-[6-(5-{2-[cis-3-cyano-1-(cyanomethyl)cyclobutyl]-2H-1,2,3-triazol-4-yl}quinolin-7-yl)pyridin-3-yl]methanesulfonamide] |  |  |  |  | 9 | 25 | 53 | 2890
12 | CS(=O)(=O)Nc1ccc(-c2cc(-c3cnn(C4(CC#N)CC(C#N)C4)n3)c3cccnc3c2)nc1 (stereo not drawn) [Example 375, N-[6-(5-{2-[trans-3-cyano-1-(cyanomethyl)cyclobutyl]-2H-1,2,3-triazol-4-yl}quinolin-7-yl)pyridin-3-yl]methanesulfonamide] |  |  |  |  | 30 | 148 | 452 | > 10000
13 | CC(=O)Nc1cccc(-c2cc(-c3cnn([C@]4(CC#N)C[C@@H](C#N)C4)n3)c3cccnc3c2)n1 [Example 376, N-[6-(5-{2-[trans-3-cyano-1-(cyanomethyl)cyclobutyl]-2H-1,2,3-triazol-4-yl}quinolin-7-yl)pyridin-2-yl]acetamide] |  |  |  |  | 36 | 155 | 593 | 9480
14 | CC(=O)Nc1cccc(-c2cc(-c3cnn(C4(CC#N)CC(C#N)C4)n3)c3cccnc3c2)n1 (stereo not drawn) [Example 377, N-[6-(5-{2-[cis-3-cyano-1-(cyanomethyl)cyclobutyl]-2H-1,2,3-triazol-4-yl}quinolin-7-yl)pyridin-2-yl]acetamide] |  |  |  |  | 14 | 33 | 73 | 1350
15 | Cc1nc(-c2cc(-c3cnn([C@]4(CC#N)C[C@H](C#N)C4)n3)c3cccnc3c2)ccc1CCO [Example 378, cis-3-(cyanomethyl)-3-(4-{7-[5-(2-hydroxyethyl)-6-methylpyridin-2-yl]quinolin-5-yl}-2H-1,2,3-triazol-2-yl)cyclobutanecarbonitrile] |  |  |  |  | 35 | 93 | 575 | 9500
16 | Cc1nc(-c2cc(-c3cnn([C@]4(CC#N)C[C@@H](C#N)C4)n3)c3cccnc3c2)ccc1CCO [Example 379, trans-3-(cyanomethyl)-3-(4-{7-[5-(2-hydroxyethyl)-6-methylpyridin-2-yl]quinolin-5-yl}-2H-1,2,3-triazol-2-yl)cyclobutanecarbonitrile] |  |  |  |  | 123 | 540 | 4360 | > 10000
17 | N#CC[C@]1(n2ncc(-c3cc(-c4cc5c(cn4)CCN5)cc4ncccc34)n2)C[C@@H](C#N)C1 [Example 380, cis-3-(cyanomethyl)-3-{4-[7-(2,3-dihydro-1H-pyrrolo[3,2-c]pyridin-6-yl)quinolin-5-yl]-2H-1,2,3-triazol-2-yl}cyclobutanecarbonitrile] |  |  |  |  | 194 | 811 | 9390 | > 10000
18 | Cc1nc(-c2cc(-c3cnn([C@]4(CC#N)C[C@H](C#N)C4)n3)c3cccnc3c2)ccc1O [Example 381, cis-3-(cyanomethyl)-3-{4-[7-(5-hydroxy-6-methylpyridin-2-yl)quinolin-5-yl]-2H-1,2,3-triazol-2-yl}cyclobutanecarbonitrile] |  |  |  |  | 30 | 138 | 432 | > 10000
